Legend:
Format in all cases: binding
[1] = target: T1, panel of 442 kinases (Homo sapiens, UniProt P0C1S8); details: kinase WEE2; compound concentration 10 µM
T1 construct: purchased KINOMEscan
Description: (§1) We assessed the selectivity of members of this scaffold using the KINOMEscan methodology across a near comprehensive panel of 442 kinases [[18,27]].

[2] = target: T2, panel of 442 kinases (Homo sapiens, UniProt Q02750); details: Compound Concentration 10 µM
T2 construct: purchased KINOMEscan
Description: as §1

[3] = target: T3, panel of 442 kinases (Homo sapiens, UniProt P08631); details: Compound Concentration 10 µM
T3 construct: purchased KINOMEscan
Description: as §1

[4] = target: T4, panel of 442 kinases (Homo sapiens, UniProt P11802); details: Compound Concentration 10 µM
T4 construct: purchased KINOMEscan
Description: as §1

T2 sequence (Q02750 whole entry): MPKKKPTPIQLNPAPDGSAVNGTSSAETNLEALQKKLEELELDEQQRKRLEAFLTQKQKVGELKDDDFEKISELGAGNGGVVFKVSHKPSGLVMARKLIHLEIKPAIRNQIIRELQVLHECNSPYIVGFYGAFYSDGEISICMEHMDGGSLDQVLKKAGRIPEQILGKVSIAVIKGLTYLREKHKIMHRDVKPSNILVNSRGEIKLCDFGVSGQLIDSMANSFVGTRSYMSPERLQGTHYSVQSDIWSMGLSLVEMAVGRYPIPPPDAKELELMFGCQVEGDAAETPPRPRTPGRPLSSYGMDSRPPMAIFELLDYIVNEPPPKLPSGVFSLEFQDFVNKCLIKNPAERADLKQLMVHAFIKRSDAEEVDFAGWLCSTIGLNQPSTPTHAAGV
T4 sequence (P11802 whole entry): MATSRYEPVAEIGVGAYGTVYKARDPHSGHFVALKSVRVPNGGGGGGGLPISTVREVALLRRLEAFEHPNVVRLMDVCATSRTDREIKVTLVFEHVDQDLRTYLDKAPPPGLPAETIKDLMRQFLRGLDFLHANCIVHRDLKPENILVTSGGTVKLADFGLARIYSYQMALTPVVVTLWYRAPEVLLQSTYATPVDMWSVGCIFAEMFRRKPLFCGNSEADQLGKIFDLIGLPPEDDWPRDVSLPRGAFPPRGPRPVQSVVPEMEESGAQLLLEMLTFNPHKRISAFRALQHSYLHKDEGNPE
T3 sequence (P08631 whole entry): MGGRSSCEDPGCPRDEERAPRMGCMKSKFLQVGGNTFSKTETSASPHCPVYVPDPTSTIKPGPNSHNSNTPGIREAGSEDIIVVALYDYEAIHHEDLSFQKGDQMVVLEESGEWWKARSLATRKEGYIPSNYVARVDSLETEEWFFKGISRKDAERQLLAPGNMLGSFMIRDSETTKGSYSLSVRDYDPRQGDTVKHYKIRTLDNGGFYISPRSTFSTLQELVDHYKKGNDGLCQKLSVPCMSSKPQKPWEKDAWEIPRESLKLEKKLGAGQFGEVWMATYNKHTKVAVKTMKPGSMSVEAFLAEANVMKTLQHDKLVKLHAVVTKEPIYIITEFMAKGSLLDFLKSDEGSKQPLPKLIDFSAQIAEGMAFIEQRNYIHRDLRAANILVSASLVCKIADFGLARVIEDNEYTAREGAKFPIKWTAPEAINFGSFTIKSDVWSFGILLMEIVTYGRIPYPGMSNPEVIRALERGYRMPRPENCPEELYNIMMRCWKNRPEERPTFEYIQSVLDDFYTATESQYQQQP
T1 sequence (P0C1S8 whole entry): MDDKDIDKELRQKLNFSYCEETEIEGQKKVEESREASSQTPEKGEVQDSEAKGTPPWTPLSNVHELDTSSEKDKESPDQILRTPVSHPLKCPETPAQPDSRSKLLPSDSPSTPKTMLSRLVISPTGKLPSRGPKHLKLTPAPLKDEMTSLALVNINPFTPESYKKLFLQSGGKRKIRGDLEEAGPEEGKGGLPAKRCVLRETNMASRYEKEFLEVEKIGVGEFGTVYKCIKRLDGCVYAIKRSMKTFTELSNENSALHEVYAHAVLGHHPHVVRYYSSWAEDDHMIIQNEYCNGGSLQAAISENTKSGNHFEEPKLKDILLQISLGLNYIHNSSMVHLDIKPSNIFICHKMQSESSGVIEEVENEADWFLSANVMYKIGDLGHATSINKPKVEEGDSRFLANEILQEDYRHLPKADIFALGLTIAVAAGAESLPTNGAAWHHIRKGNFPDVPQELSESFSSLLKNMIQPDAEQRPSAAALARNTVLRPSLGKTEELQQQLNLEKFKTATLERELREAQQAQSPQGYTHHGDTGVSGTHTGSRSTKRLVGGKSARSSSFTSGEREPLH

SMILES | % Ctrl, WEE2 [1] [% Ctrl] | KINOMEscan: MEK1 [2] | KINOMEscan: HCK [3] | KINOMEscan: CDK4-cyclinD1 [4] | KINOMEscan: CDK4-cyclinD3 [4]
COc1cc(C(=O)N2CCC(N3CCN(C)CC3)CC2)ccc1Nc1ncc2c(n1)N1CCc3cccc(c31)C(=O)N2C [Compound 24] | 100 | 75 |  |  | 
CCOc1cc(C(=O)N2CCC(N3CCN(C)CC3)CC2)ccc1Nc1ncc2c(n1)N(C1CCCC1)c1ccccc1C(=O)N2C [Compound 26] | 100 | 100 | 100 | 91 | 100
COc1cc(C(=O)N2CCC(N3CCN(C)CC3)CC2)ccc1Nc1ncc2c(n1)N(C1CCCC1)c1ccccc1C(=O)N2C [Compound 25, 11-cyclopentyl-2-((2-methoxy-4-(4-(4-methylpiperazin-1-yl)piperidine-1-carbonyl)phenyl)amino)-5-methyl-5H-benzo[e]pyrimido[5,4-b][1,4]diazepin-6(11H)-one] | 100 | 68 | 97 | 100 | 73
COc1cc(C(=O)N2CCC(N3CCN(C)CC3)CC2)ccc1Nc1ncc2c(n1)N(C)c1ccccc1C(=O)N2C [15 (LRRK2-IN-1)] | 100 | 100 | 100 | 100 | 100
